Molecules are shown by their SMILES. pIC50: −log10 of the molar value. Values after ≈ are worked out from the molar mass of the structure shown.

These results are taken from ChEMBL document CHEMBL5360596, “Triquinane Sesquiterpene Glycosides from the Basidiomycete Antrodiella zonata” (J Nat Prod, 2023).

For assay [1], the system named is Staphylococcus aureus. Description: Antibacterial activity against Staphylococcus aureus ATCC 29213 assessed as bacterial growth inhibition incubated for 24 hrs by photometric analysis. It counts as functional.
The nature of assay [2]: Immunosuppressive activity against B cell (unknown origin) assessed as inhibition of LPS-induced cell proliferation. In kind it is functional, cell-based.

As to `CC1=C2[C@@H]3CC(C)(C)C[C@@H]3[C@H](O[C@@H]3OC[C@@H](O)[C@H](O)[C@H]3O)[C@@]2(C)CC1=O`, in assay [1], the MIC50 was determined as 69 µM (≈ 25.3 µg/mL). As for `CCCCCC[C@@H](O)C(=O)O[C@@H]1[C@@H]2[C@H](CC1(C)C)[C@H](O)[C@@]1([C@H](O)C(=O)OC)OCC(=O)[C@@]21C`, the pIC50 in assay [2] was 5.18.

For the compound `CC1(C)C[C@H]2[C@@H](C1)C1=CC(=O)C[C@]1(C)[C@H]2O[C@@H]1O[C@H](CO)[C@@H](O)[C@H](O)[C@H]1O`, in assay [1], the MIC50 worked out at 34 µM (≈ 13 µg/mL). With `CC1=C2[C@@H]3CC(C)(C)C[C@@H]3[C@H](O[C@@H]3O[C@H](CO)[C@@H](O)[C@H](O)[C@H]3O)[C@@]2(C)CC1=O`, in assay [1], the MIC50 was 35 µM (≈ 13.9 µg/mL).

One may read the MIC50 as an inhibitory concentration at the 50% level, which refers to growth in some studies and to a panel of isolates in others. As a reminder, the pIC50 is the IC50 on a negative log10 scale, so that one unit is a factor of ten.
